Data set [1] can be described thus: MTT assay on A375 cell line. It counts as cell-based. Conditions: human, A375 melanoma cells, read-out: % cell viability (±SEM). On the procedure:
MCA205 mouse sarcoma cell line is cultured at 37° C. under 5% CO2 in RPMI 1640 medium (Life Technologies) in the presence of 1% glutamine, 1% sodium pyruvate, 1% non-essential amino-acids, 1% penicillin/streptomycin and 10% FBS (Life Technologies) under standard conditions. B16F10 mouse melanoma cell line, MRC5 human fibroblast cell line and A375 human melanoma cell line are cultured at 37° C. under 5% CO2 in DMEM medium (Life Technologies) containing 1% glutamine, 1% penicillin/streptomycin and 10% FCS under standard conditions. A549 human lung carcinoma cell line is cultured at 37° C. under 5% CO2 in DMEM/F12+Glutamax I in the presence of 1% Hepes, 1% sodium pyruvate and 10% FBS under standard conditions. Stable MCA205-Globin-SL8-intron cell line are cultured under the same condition as MCA205 cell line with additional 2 mg/ml G418 (geneticin from Life Technologies) for selection. Stable B16F10-Globin-SL8-intron cell line are cultured under the same condition as B16F10 cell line with additional 2 mg/ml G418 (geneticin from Life Technologies) for selection. The SL8/Kb-specific (B3Z) T-cell reporter hybridoma are cultured at 37° C. under 5% CO2 in RPMI 1640 medium (Life Technologies) in the presence of 1% glutamine, 0.1% β-galactosidase, 1% penicillin/streptomycin and 10% FCS under standard conditions. […]

The nature of data set [2]: MTT viability, human cells (text summary of table 1). The conditions noted are these: concentrations used (2.5 and 6.25 μM), A375, A549, MRC5, read-out: viability of human cells upon treatment. It counts as cell-based. An excerpt: Cancer cells display different intracellular mechanisms that can shape the pool and the quantity of peptides presented on MHC class I (MHC-I) molecules at their surface, leading to reduction of their antigenicity and escape of T-cell recognition. Inventors have shown that PTPs are a major source of peptides for the endogenous MHC-I pathway in vitro. In addition, they have provided the first proof of the positive impact of splicing inhibition on PTPs-dependent antigen presentation by treating HEK cells with the splicing inhibitor isoginkgetin. The latter has been reported to inhibit the spliceosome during the early stages of its assembly. In view to improve antigenicity and immune recognition of cancer cell lines, inventors determined whether isoginkgetin was able to modulate positively the expression and the presentation of tumor associated PTPs-derived antigens (TA-PTPs) at cancer cells surface. For that purpose, the human melanoma cell line A375, the human lung cancer cell line A549 and the normal human fibroblast lung cell line MRC5 were transiently expressing the MHC-I H2-K^b molecule and the PTPs-SL8 epitope from an intron within the β-Globin gene construct (Globin-SL8-intron) and treated with different concentrations of isoginkgetin for 18 h. […]

The test system of the next data set is MCA205 WT tumors. As to the kind of experiment: Tumor challenge, MCA205 WT in immunodeficient Nu/Nu nude mice. It counts as in vivo, mouse. Conditions: 18 mg/kg intraperitoneally, days 5, 10 and 15. How it is done:
(A) Experimental settings. Growth of (B) sarcoma MCA205 or (C) melanoma B16F10 cells that both stably express the globin-SL8-intron construct or (D) MCA205 Wild Type (WT) or (E) B16F10 WT cells that were subcutaneously inoculated on the flank of immunocompetent C57BL/6 mice injected intraperitoneally with 12 mg/kg or 18 mg/kg of isoginkgetin at days 5, 10 and 15 after inoculation. Tumor size was assessed every 3 to 4 days until reaching the established ethical endpoints. Each line represents the tumor size in area (mm^2) of 6 mice in each group. Size in area (mm^2) of (F) MCA205 globin-SL8-intron, (G) B16F10 globin-SL8-intron, (H) MCA205 WT or (I) B16F10 WT tumors subcutaneously inoculated on the flank of immunodeficient Nu/Nu Nude mice injected intraperitoneally with 18 mg/kg of isoginkgetin at days 5, 10 and 15 after inoculation. Data are presented at the day before the endpoints are reached.
Each line represents the tumor size in area (mm^2) of at least 6 mice in each group. The C right panel represents the tumor size at day 27. […]
Inventors then assessed the requirement of the immune response for isoginkgetin to reduce tumor growth Immunodeficient Nu/Nu nude mice were inoculated subcutaneously with either MCA205 or B16F10 cells that stably express the Globin-intron-SL8 or WT, and were treated with the same settings as previously described (FIG. 9A). […]

Consider one compound from patent publication US11110105B2, “Compounds, composition and uses thereof for treating cancer” (INSTITUT GUSTAVE ROUSSY, priority 2017, dated 2021).

Broadly, the viability is a read-out of living cells in per cent, often relative to untreated cells.

The structures appear in SMILES notation. Bounds are passed on as bounds.

Turning to `COc1ccc(-c2cc(=O)c3c(O)cc(O)c(-c4cc(-c5cc(=O)c6c(O)cc(O)cc6o5)ccc4OC)c3o2)cc1` [Isoginkgetin, isoginkgetin], the viability at 2.5 µM in data set [1] (A375, 2.5 μM) stood at 100%. In addition, in data set [1] (A375, 6.25 μM), the viability at 6.25 µM amounted to 100%. For the same compound, the viability in data set [2] was above 80%. Further, the tumor growth entry in the data set with MCA205 WT tumors is on record as “No effect”.
